Source: ChEMBL document CHEMBL5634123, “Design and synthesis of 1H-benzo[d]imidazole selective HDAC6 inhibitors with potential therapy for multiple myeloma” (Eur J Med Chem, 2023)

Key:
[1] = target: T1, Protein deacetylase HDAC6 (Homo sapiens, UniProt Q9UBN7); assay: Inhibition of HDAC6 (unknown origin) preincubated for 10 mins followed by substrate addition measured for 1 hr by fluorescence based assay
T1 sequence (Q9UBN7 whole entry): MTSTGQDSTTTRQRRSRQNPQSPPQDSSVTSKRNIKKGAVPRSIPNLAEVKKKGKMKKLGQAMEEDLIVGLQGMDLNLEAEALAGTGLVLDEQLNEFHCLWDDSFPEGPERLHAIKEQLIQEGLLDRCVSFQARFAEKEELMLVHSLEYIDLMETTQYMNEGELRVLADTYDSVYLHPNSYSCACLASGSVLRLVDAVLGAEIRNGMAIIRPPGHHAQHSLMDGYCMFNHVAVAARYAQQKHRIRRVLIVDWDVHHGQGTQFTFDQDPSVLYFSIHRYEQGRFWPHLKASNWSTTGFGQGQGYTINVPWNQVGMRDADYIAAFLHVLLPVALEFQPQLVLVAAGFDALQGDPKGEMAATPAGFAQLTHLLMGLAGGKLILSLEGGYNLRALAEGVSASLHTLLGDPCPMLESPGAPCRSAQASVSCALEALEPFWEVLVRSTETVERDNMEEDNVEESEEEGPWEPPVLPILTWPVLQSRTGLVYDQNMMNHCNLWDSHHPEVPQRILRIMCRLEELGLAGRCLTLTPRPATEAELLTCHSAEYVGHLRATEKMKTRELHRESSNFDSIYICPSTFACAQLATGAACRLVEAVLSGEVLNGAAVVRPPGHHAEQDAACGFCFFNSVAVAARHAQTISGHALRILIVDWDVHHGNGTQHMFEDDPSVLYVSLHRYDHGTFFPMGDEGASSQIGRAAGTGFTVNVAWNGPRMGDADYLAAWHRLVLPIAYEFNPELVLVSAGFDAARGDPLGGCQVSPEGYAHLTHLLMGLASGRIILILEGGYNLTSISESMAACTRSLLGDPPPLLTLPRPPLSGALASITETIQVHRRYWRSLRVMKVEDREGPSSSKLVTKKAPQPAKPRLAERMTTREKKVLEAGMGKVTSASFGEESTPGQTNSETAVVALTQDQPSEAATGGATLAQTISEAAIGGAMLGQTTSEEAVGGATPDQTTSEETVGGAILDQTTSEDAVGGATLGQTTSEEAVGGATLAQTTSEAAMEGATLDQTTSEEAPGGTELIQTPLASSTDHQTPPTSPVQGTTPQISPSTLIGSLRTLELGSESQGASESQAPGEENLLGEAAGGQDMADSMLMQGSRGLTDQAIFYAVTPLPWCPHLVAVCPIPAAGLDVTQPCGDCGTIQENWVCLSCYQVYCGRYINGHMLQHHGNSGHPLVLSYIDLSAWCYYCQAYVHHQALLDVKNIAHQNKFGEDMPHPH

[2] = test system: RPMI-8226; assay: cells; conditions: Homo sapiens, RPMI-8226, 24 h
[3] = test system: HCCLM3; assay: Cytotoxicity against human HCCLM3 cells assessed as inhibition of cell viability incubated for 24 hrs by CCK8 assay; type: functional, cell-based; conditions: HCCLM3, 24 h
[4] = test system: HCT-116; assay: Cytotoxicity against human HCT-116 cells assessed as inhibition of cell viability incubated for 24 hrs by CCK8 assay; type: functional, cell-based; conditions: HCT-116, 24 h
[5] = test system: MDA-MB-468; assay: cells; conditions: Homo sapiens, MDA-MB-468, 24 h
[6] = test system: SGC-7901; assay: Cytotoxicity against human SGC-7901 cells assessed as inhibition of cell viability incubated for 24 hrs by CCK8 assay; type: functional, cell-based; conditions: SGC-7901, 24 h
[7] = target: Histone deacetylase 1 (Homo sapiens, UniProt Q13547); assay: Inhibition of HDAC1 (unknown origin) preincubated for 10 mins followed by substrate addition measured for 1 hr by fluorescence based assay
[8] = target: T2, Protein deacetylase HDAC6 (Homo sapiens) (UniProt Q9UBN7); assay: Inhibition of HDAC6 (unknown origin) at 1 uM preincubated for 10 mins followed by substrate addition measured for 1 hr by fluorescence based assay relative to control; conditions: time 70.0 min
T2 sequence (whole entry): T1 sequence (Q9UBN7 whole entry)

[9] = test system: RPMI-8226; assay: Antitumor activity against human RPMI-8226 cells xenografted in Balb/c nude mouse assessed as ratio of tumor to control at 40 mg/kg, po qd for 21 days administered consecutively relative to control; type: functional; conditions: time 21 day
[10] = test system: RPMI-8226; assay: Induction of cell cycle arrest at G2 phase in human RPMI-8226 cells at 2.5 uM incubated for 24 hrs by PI staining based flow cytometry (reference value: 18.3 %); type: functional
[11] = test system: RPMI-8226; assay: Induction of apoptosis in human RPMI-8226 cells assessed as early apoptotic cells at 2.5 uM incubated for 24 hrs by Annexin V-FITC/PI staining based flow cytometry (reference value: 5.34 %); type: functional
[12] = test system: RPMI-8226; assay: Induction of cell cycle arrest at S phase in human RPMI-8226 cells at 2.5 uM incubated for 24 hrs by PI staining based flow cytometry (reference value: 58.5 %); type: functional
[13] = test system: RPMI-8226; assay: Induction of apoptosis in human RPMI-8226 cells assessed as viable cells at 2.5 uM incubated for 24 hrs by Annexin V-FITC/PI staining based flow cytometry (reference value: 90.98 %); type: functional; conditions: read-out: Activity
[14] = AUC (0 to t) in mouse at 1 mg/kg, iv; type: ADME, organism-based; conditions: in vivo
[15] = test system: RPMI-8226; assay: Induction of apoptosis in human RPMI-8226 cells assessed as late apoptotic cells at 2.5 uM incubated for 24 hrs by Annexin V-FITC/PI staining based flow cytometry (reference value: 2.78 %); type: functional
[16] = test system: RPMI-8226; assay: Induction of apoptosis in human RPMI-8226 cells assessed as necrotic cells at 2.5 uM incubated for 24 hrs by Annexin V-FITC/PI staining based flow cytometry (reference value: 0.90 %); type: functional
[17] = Volume of distribution at steady state in mouse at 1 mg/kg, iv; type: ADME, organism-based; conditions: in vivo, read-out: Vdss
[18] = Clearance in mouse at 1 mg/kg, iv; type: ADME, organism-based; conditions: in vivo
[19] = Oral bioavailability in mouse at 10 mg/kg; type: ADME, organism-based; conditions: in vivo
[20] = Half life in mouse at 1 mg/kg, iv; type: ADME, organism-based; conditions: in vivo
[21] = Toxicity in Balb/c nude mouse xenografted with human RPMI-8226 cells assessed as body weight loss at 40 mg/kg, po qd for 21 days administered consecutively; type: organism-based; conditions: in vivo, 504 h, time 21 day
[22] = test system: RPMI-8226; assay: Induction of cell cycle arrest at G1 phase in human RPMI-8226 cells at 2.5 uM incubated for 24 hrs by PI staining based flow cytometry (reference value: 19.2 %); type: functional
[23] = Tmax in mouse at 10 mg/kg, po; type: ADME, organism-based; conditions: in vivo
[24] = Cmax in mouse at 10 mg/kg, po; type: ADME, organism-based; conditions: in vivo

Chain of Histone deacetylase 1 (Q13547 whole entry): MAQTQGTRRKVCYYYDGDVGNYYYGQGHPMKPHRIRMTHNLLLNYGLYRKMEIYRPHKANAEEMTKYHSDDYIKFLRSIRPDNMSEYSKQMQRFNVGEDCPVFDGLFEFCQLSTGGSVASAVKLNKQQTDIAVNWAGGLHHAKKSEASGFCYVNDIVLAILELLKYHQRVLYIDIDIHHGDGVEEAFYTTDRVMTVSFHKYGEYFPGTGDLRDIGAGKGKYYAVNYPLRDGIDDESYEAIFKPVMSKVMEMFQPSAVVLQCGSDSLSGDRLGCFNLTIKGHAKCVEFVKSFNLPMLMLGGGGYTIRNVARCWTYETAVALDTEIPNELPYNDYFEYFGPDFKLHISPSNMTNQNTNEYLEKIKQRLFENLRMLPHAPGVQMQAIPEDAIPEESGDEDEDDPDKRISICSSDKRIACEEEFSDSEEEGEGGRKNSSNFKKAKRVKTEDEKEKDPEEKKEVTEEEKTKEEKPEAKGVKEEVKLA

Row | Compound | IC50 [1] [nM] | IC50 [2] [nM] | IC50 [3] [nM] | IC50 [4] [nM] | IC50 [5] [nM] | IC50 [6] [nM] | further results
1 | C[C@H](NCc1ccccc1)c1nc2cc(C(=O)NO)ccc2n1C | 9.22 | 1050 | 2420 | 6420 | 9160 | 2400 | 
2 | Cn1c(CN2CCC3(CC2)OCCO3)nc2cc(C(=O)NO)ccc21 | 36.4 |  |  |  |  |  | 
3 | O=C(NO)c1ccc2c(c1)nc(CNc1ccccc1)n2C1CC1 | 898 |  |  |  |  |  | 
4 | CCN(Cc1nc2cc(C(=O)NO)ccc2n1C)c1ccccc1 | 10.3 | 1380 | 4510 | 500 | > 50000 | 4200 | 
5 | Cn1c(CNc2ccc(F)cc2)nc2cc(C(=O)NO)ccc21 | 18.4 |  |  |  |  |  | 
6 | Cn1c(CNc2cccc3ccccc23)nc2cc(C(=O)NO)ccc21 | 5.87 | 320 | 781 | 9360 | 6730 | 518 | IC50 [7]: 834 nM
7 | CCCN(Cc1nc2cc(C(=O)NO)ccc2n1C)c1ccccc1 | 12.8 | 2390 | 4800 | 2060 | > 50000 | 8690 | 
8 | Cn1c(CNc2ccccc2F)nc2cc(C(=O)NO)ccc21 | 13.8 | 2470 | 14400 | > 50000 | 8580 | 5810 | 
9 | O=C(NO)c1ccc2nc(CCc3ccccc3)[nH]c2c1 | 69.2 |  |  |  |  |  | 
10 | Cn1c(CNc2ccccc2)nc2ccc(C(=O)NO)cc21 |  |  |  |  |  |  | inhibition [8]: 64.1%
11 | Cn1c(CSc2ccccc2)nc2cc(C(=O)NO)ccc21 | 28.1 |  |  |  |  |  | 
12 | Cc1ccc(NCc2nc3cc(C(=O)NO)ccc3n2C)cc1 | 19.4 |  |  |  |  |  | 
13 | Cc1cccc(NCc2nc3cc(C(=O)NO)ccc3n2C)c1 | 11.8 | 1620 | > 50000 | 16000 | > 50000 | 27900 | 
14 | CCCCN(Cc1nc2cc(C(=O)NO)ccc2n1C)c1cccc(F)c1 | 12.8 | 1330 | 4430 | 3580 | 10500 | 6530 | 
15 | O=C(CCCCCCNC(=O)c1cnc(N(c2ccccc2)c2ccccc2)nc1)NO [RICOLINOSTAT] |  |  |  |  |  |  | T/C [9]: 39.9%; Activity [10]: 24.5%; Activity [11]: 19.84%; Activity [12]: 40.8%; viability at 2.5 µM [13]: 75.3%; AUC(0-t) [14]: 566 ng·h/mL; Activity [15]: 4.33%; Activity [16]: 0.56%; Vd [17]: 0.525 L/kg; clearance [18]: 29.4 mL/min/kg; bioavailability [19]: 6%; half-life [20]: 22.3 min; Activity [21]: Non-Toxic; Activity [22]: 28.1%; Tmax [23]: 15 min; Cmax [24]: 333 ng/mL
